The source of these data is ChEMBL document CHEMBL1201862, “PubChem BioAssay data set” (2004).

Calls of active or inactive are those of the source.

In data set [1] the target is T1, Caspase-3 (Homo sapiens, UniProt P42574).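 Further: Dose-response selectivity test against caspase-3 for candidate inhibitors of sentrin-specific proteases (SENPs).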
T1 sequence (P42574 whole entry): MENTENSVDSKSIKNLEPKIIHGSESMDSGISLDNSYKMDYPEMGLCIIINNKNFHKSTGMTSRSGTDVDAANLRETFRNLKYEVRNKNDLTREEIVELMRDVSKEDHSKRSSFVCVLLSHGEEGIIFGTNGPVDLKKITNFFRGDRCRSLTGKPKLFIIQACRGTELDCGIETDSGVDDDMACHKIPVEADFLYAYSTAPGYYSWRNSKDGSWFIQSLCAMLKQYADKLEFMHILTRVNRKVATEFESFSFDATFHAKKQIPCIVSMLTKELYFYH
The format is functional.

Data set [2] concerns the target T2, Sentrin-specific protease 7 (Homo sapiens, UniProt Q9BQF6).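 Further: Luminescence-based dose-response confirmation of ultra-high-throughput screening hits, measuring inhibition of SENP7.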
T2 sequence (Q9BQF6 whole entry): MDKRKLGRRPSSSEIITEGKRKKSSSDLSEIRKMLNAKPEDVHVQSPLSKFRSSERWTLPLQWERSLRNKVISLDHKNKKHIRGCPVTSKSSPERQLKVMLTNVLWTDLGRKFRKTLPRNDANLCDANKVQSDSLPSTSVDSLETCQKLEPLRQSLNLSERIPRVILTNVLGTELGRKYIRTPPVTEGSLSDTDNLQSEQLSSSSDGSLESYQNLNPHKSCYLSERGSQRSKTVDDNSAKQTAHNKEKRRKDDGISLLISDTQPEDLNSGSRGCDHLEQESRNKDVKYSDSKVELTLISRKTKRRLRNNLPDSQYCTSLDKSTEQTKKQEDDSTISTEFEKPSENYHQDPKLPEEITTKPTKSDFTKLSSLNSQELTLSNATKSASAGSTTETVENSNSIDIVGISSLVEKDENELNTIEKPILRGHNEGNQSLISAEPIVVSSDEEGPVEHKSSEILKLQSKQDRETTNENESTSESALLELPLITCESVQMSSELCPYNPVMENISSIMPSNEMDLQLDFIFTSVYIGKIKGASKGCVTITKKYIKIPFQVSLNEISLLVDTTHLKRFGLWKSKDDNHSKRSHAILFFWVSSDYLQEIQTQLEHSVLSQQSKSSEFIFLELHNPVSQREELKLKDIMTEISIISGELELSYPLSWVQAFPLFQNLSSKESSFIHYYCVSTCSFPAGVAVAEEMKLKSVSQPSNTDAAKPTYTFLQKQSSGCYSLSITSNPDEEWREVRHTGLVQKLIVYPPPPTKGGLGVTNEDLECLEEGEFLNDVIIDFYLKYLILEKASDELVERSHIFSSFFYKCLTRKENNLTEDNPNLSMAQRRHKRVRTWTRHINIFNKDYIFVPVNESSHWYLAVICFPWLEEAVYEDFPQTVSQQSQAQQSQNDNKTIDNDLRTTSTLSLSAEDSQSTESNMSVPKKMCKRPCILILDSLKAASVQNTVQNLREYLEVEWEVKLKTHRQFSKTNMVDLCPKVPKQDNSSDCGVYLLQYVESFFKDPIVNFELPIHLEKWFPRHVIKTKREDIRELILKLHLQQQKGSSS
The format is functional.

Data set [3] deals with T3, Sentrin-specific protease 6 (Homo sapiens, UniProt Q9GZR1).
T3 sequence (Q9GZR1 whole entry): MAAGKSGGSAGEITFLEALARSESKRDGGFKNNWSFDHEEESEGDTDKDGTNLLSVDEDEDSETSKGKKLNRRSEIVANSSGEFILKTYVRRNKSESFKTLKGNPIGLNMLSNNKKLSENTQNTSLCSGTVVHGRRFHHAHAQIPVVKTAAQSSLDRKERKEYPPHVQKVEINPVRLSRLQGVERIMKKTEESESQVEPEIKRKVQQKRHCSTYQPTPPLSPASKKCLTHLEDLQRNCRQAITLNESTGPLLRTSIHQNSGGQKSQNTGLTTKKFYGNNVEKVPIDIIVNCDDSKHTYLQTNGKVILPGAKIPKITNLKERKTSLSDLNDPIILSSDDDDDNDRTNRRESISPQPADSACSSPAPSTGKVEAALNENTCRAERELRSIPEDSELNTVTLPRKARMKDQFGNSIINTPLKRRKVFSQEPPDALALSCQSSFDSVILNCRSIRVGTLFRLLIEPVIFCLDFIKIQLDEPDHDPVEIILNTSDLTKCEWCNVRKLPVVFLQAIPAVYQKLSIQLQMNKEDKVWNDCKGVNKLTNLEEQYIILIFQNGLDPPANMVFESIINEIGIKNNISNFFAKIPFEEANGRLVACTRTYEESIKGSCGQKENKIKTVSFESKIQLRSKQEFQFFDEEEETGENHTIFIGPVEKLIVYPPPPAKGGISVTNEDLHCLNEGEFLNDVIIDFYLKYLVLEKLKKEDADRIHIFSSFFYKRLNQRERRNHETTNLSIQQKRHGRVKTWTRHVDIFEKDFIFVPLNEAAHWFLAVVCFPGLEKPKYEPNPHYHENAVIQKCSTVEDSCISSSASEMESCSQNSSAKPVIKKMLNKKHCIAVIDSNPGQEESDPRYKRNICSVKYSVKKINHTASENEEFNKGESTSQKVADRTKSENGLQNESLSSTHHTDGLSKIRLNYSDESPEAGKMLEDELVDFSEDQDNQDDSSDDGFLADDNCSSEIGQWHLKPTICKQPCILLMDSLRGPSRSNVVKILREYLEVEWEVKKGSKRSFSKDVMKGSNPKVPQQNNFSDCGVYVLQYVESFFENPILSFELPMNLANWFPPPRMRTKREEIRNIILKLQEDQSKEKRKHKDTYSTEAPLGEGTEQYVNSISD
The format is functional.

The target in data set [4] is T4, Sentrin-specific protease 8 (Homo sapiens, UniProt Q96LD8).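 Further: luminescence read-out of SENP8 inhibition, dose-response confirmation following an ultra-high-throughput screen.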
T4 sequence (Q96LD8 whole entry): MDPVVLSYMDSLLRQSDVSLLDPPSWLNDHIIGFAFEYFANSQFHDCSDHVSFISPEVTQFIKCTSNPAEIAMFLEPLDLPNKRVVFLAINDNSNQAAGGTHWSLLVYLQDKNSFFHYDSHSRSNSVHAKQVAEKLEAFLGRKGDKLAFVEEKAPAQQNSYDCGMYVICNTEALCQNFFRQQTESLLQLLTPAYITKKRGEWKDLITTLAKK
The format is functional.

Data set [5] has as its target DNA dC->dU-editing enzyme APOBEC-3A (Homo sapiens, UniProt P31941). Kind of data set: Dose Response confirmation of small molecule APOBEC3A DNA Deaminase Inhibitors via a fluorescence-based single-stranded DNA deaminase assay. [Related pubchem assays (depositor defined):AID493011, AID493024]. The format is functional.
Data set [6] deals with DNA dC->dU-editing enzyme APOBEC-3G (Homo sapiens, UniProt Q9HC16). The format is functional.
Sequence of DNA dC->dU-editing enzyme APOBEC-3G (Q9HC16 whole entry): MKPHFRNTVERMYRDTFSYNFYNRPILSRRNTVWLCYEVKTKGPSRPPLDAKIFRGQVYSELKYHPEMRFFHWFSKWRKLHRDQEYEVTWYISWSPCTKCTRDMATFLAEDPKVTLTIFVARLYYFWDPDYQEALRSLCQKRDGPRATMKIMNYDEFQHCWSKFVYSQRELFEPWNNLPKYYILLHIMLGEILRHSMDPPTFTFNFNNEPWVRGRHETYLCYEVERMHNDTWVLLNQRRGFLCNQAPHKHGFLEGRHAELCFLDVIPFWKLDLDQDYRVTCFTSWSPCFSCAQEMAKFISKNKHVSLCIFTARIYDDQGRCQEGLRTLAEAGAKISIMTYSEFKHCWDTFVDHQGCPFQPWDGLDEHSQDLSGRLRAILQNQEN
Data set [7] deals with T5, Histone-lysine N-methyltransferase NSD2 (Homo sapiens, UniProt O96028).
T5 sequence (O96028 whole entry): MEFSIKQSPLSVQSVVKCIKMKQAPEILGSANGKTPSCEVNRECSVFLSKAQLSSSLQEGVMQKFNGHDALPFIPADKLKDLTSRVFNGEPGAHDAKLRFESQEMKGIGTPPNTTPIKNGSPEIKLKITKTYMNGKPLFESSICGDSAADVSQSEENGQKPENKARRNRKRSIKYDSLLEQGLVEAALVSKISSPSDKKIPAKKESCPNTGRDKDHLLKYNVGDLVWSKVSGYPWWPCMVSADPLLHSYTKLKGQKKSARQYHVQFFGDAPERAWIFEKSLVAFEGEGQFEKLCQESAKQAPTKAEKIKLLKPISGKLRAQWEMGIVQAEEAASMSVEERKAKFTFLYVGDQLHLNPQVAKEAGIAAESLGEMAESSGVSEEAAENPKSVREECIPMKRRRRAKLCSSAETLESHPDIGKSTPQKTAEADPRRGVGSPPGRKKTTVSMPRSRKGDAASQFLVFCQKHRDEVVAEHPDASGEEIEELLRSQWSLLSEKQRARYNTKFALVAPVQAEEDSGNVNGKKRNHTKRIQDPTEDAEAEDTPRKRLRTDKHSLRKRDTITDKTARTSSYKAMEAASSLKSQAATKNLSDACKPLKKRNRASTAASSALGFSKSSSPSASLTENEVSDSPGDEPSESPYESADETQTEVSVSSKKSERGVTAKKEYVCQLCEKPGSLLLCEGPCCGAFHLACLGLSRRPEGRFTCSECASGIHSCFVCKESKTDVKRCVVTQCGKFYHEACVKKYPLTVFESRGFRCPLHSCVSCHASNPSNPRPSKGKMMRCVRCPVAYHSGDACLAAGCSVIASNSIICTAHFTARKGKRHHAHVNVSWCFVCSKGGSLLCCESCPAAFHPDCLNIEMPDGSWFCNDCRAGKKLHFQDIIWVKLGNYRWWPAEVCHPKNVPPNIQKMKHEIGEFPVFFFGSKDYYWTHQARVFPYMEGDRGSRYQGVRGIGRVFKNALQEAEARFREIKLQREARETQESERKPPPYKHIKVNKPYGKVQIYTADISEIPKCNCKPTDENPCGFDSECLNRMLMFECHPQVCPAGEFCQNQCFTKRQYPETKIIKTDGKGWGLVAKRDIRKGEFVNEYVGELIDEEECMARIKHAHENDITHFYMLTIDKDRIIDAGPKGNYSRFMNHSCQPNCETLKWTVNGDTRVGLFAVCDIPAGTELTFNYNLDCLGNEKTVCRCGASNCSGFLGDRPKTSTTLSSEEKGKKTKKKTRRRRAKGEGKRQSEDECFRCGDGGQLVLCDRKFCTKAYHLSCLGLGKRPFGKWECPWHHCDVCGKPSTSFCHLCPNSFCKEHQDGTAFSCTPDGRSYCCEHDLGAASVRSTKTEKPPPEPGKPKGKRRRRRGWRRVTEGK
Format: biochemical.

Data set [8] addresses Cytochrome P450 2D6 (Homo sapiens, UniProt P10635).
Data set [9] addresses Cytochrome P450 2C9 (Homo sapiens, UniProt P11712).
The target in data set [10] is Genome polyprotein (dengue virus type 2, UniProt P29990). Kind of data set: Dengue-2 NS5 methyltransferase inhibitors, primary screen, biochemical, confirmation dose response (AID 588689). The format is functional.
Sequence of Genome polyprotein (P29990 2492-3391 limits assumed): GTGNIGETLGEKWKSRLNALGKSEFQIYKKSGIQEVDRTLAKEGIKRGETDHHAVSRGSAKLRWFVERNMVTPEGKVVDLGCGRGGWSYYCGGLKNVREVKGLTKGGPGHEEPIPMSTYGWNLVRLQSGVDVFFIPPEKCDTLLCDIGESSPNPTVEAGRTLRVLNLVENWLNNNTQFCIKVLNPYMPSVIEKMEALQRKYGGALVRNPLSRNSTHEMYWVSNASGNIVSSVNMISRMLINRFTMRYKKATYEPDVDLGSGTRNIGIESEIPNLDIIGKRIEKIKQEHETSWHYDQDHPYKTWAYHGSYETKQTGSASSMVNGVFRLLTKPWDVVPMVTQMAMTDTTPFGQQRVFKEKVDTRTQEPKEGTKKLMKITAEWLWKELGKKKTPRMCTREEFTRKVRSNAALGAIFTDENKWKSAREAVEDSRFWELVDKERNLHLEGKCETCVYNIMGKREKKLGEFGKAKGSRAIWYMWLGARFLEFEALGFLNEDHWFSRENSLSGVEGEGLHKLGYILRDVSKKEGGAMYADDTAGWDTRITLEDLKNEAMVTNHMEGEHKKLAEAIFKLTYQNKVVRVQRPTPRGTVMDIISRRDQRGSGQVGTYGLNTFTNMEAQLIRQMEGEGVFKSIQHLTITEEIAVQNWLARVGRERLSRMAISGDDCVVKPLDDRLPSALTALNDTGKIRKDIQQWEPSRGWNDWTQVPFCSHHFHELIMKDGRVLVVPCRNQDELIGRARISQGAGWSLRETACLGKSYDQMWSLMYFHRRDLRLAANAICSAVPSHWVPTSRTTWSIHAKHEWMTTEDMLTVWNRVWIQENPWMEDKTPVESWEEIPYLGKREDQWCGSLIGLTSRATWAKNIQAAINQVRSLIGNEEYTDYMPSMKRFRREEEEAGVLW
Data set [11] has as its system Escherichia coli. The data set can be described thus: microbe, parasite or virus in culture.
The target of data set [12] is Troponin, cardiac muscle (Homo sapiens, UniProt P19429+P45379+P63316). Kind of data set: Fluorescence-based biochemical high throughput dose response assay for activators of the calcium sensitivity of cardiac Regulated Thin Filaments (RTF). [Related pubchem assays (depositor defined):AID493008, AID493018, AID504382, AID504383]. Format: protein-complex assay.
A short description of data set [13]: cells. Format: functional, cell-based.
A short description of data set [14]: Luminescence Cell-Based Dose Response HTS to Identify Inhibitors of 5'UTR Stem-Loop Driven Prion Protein mRNA Translation in H4 Neuroglioblastoma Cells. [Related pubchem assays: 1827 (Project Summary), 1813 (Primary HTS)]. Format: functional.
A short description of data set [15]: cells. The format is functional, cell-based. The source holds these as a separate data set.

Sequence of DNA dC->dU-editing enzyme APOBEC-3A (P31941 whole entry): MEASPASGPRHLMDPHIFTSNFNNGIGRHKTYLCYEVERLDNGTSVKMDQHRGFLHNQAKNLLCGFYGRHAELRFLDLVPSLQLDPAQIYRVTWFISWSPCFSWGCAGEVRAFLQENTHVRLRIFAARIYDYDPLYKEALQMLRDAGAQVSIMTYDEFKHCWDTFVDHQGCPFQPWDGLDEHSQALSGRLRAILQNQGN
Sequence of Cytochrome P450 2C9 (P11712 whole entry): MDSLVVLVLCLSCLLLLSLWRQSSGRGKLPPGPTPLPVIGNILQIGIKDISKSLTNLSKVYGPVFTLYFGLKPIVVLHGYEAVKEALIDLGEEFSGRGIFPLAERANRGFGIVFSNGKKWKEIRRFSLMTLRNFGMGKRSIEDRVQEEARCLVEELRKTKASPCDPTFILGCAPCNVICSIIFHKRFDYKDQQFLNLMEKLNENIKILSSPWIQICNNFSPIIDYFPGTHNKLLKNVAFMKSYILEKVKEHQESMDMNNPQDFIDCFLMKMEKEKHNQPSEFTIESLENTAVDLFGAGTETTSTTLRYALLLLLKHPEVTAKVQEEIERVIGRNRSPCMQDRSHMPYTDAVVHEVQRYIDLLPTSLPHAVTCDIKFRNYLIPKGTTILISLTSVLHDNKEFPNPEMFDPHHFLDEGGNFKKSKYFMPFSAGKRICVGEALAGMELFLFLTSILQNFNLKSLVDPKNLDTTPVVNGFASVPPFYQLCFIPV
Sequence of Cytochrome P450 2D6 (P10635 whole entry): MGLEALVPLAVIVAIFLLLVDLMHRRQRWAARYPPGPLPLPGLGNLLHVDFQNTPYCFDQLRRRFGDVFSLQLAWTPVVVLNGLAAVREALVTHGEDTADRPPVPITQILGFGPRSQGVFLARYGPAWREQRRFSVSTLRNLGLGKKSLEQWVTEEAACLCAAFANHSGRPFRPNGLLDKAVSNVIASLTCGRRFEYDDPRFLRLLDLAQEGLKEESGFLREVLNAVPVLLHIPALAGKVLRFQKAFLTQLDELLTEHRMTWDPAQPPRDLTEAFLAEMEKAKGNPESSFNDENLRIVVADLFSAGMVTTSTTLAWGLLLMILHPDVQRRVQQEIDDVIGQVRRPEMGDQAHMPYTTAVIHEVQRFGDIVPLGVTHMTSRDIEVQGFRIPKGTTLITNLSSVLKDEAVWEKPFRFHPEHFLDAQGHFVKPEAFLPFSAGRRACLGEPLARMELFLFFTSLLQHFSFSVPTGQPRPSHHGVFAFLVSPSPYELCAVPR

Regarding `CCOC(=O)c1ccc(NC(=O)/C=C/c2cccs2)cc1`, the IC50 (in general, the concentration needed to halve the response being measured) was 21.6 µM (active) in data set [1], 4.96 µM (active) in data set [2], 15 µM (active) in [3] and 14.5 µM (active) in [4].

Turning to `O=C(O)c1ccc(CSc2n[nH]c(-c3ccco3)n2)cc1`, the values for the IC50 in [5] and in [6] were 9.95 µM (active) and 19.3 µM (active), respectively. Also, the AC50 (in general, the concentration giving half of the maximal activity seen) in data set [7] is > 20 µM (inactive).

Turning to `Cc1[nH]c2ccccc2c1/C=C(\C#N)C(=O)NC(C)c1ccccc1` (configuration not stated), the IC50 in data set [5] was 1.87 µM (active); in data set [6] it was 2.64 µM (active). The half-maximal activity concentration (AC50) in data set [8] was 8.91 µM (inconclusive); in data set [9], “inconclusive”.

For the compound `N#C/C(=C\c1ccc(C#N)cc1)C(=O)c1ccccc1`, in [10], the IC50 is > 100 µM (active).

As to `CCOC(=O)N1CCC(N(CCN(C)C)C(S)=Nc2ccc(Oc3ccccc3)cc2)CC1`, the concentration at half-maximal activity (AC50) in [11] is 43.6 µM (active).

For the compound `COc1ccccc1-c1noc(CSc2nc(C)cc(O)n2)n1`, the 50% inhibitory concentration (IC50) in [5] is 16.6 µM (active); in data set [6], 19.4 µM (active).

For the compound `Nc1nnnn1CC(=O)N/N=C/c1ccc(-c2cccc(Cl)c2)o1`, the AC50 in data set [11] is 21.6 µM (active).

For the compound `CC(=O)c1ccc[n+](CC(=O)NC(C)c2ccccc2)c1` (configuration not stated), the IC50 in data set [5] is 3.57 µM (active); in data set [6], 6.17 µM (active).

In the case of `O=[N+]([O-])c1cccc(/C=N/Nc2ccccn2)c1`, the IC50 in [1] was 8.82 µM (active); in [2] it was 7.65 µM (active); in data set [3], > 100 µM (inactive); in data set [4] it was > 100 µM (inactive).

As for `CC1CN(c2ccc(NS(=O)(=O)c3ccccc3)cc2C(=O)O)CC(C)O1` (configuration not stated), the EC50 (usually the concentration that produces a half-maximal response) in data set [12] was > 71.5 µM (inactive).

As for `O=C(O)c1ccc2cc(-c3ccccc3)[nH]c2c1`, the EC50 was > 350 µM (not active) in data set [13], 11.8 µM (inconclusive) in [14] and 2.55 µM (active) in [15]. For the same compound, the half-maximal inhibitory concentration (IC50) in data set [1] is 1.22 µM (active); in data set [2], 0.938 µM (active); in [3], 1.08 µM (active); in data set [4], 1.53 µM (active).

Take `COc1ccc(Cl)cc1N=C(S)NCc1cccnc1`: the concentration at half-maximal activity (AC50) in [11] is 29.7 µM (active).

On to `COc1ccc(-c2nn(-c3ccccc3)cc2/C=N/NC(N)=S)cc1OC`, for which the EC50 in data set [12] is > 71.5 µM (inactive).
